Assay [1] addresses T1, Progesterone receptor (Homo sapiens, UniProt P06401).
T1 sequence (P06401 whole entry): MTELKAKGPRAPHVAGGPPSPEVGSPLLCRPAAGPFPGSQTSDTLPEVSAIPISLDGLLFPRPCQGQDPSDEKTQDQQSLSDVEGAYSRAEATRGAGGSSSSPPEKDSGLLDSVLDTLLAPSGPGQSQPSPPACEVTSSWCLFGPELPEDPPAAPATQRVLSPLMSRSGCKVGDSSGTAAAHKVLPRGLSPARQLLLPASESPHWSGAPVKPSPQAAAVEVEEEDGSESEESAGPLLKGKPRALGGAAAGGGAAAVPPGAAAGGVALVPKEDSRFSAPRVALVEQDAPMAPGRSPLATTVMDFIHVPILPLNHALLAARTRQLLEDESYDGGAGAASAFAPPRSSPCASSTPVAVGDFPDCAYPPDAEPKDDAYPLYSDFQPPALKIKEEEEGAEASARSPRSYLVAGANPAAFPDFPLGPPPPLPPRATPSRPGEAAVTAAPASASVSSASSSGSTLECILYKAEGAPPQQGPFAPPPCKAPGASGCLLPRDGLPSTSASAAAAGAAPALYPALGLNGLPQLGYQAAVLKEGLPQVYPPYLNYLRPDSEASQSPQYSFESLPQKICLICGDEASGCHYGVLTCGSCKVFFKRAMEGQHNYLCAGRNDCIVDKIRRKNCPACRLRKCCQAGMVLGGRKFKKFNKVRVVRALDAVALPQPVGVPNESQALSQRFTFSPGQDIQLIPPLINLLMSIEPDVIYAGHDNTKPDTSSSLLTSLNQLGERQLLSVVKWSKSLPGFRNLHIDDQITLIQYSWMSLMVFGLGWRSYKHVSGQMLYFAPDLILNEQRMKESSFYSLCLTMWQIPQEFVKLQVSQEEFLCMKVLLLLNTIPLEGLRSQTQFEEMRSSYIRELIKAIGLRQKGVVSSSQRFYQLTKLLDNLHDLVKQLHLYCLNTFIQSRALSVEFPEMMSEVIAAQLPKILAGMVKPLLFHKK
The assay is described as follows: Antagonist activity at progesterone receptor in human T47D cells incubated for 24 hrs in presence of P4 by alkaline phosphatase assay. The class given is cell-based.

The target in assay [2] is T1, Progesterone receptor. The assay is described as follows: Displacement of [1,2,6,7-3H]-PG from recombinant human GST-tagged PR-LBD (657 to 933 residues) expressed in baculovirus infected insect cells measured after 24 hrs by liquid scintillation counting method.

Structures are written as SMILES.

Take `COc1cccc(Oc2ccc(NS(=O)(=O)c3cccc(OC)c3)cc2)c1`: the IC50 in assay [1] stood at 370 nM.

On to `O=S(=O)(Nc1ccc(OCc2ccccc2)cc1)c1cccc(Cl)c1`, for which the IC50 in assay [1] was 810 nM. As to `COc1cccc(Oc2ccc(NS(=O)(=O)c3cccc(Cl)c3)cc2)c1`, the IC50 in assay [1] was found to be 270 nM.

Take `N#Cc1cccc(S(=O)(=O)Nc2ccc(Oc3ccccc3)cc2)c1`: the IC50 in assay [1] was 300 nM. As for `O=S(=O)(Nc1ccc(Oc2ccccc2)cc1)c1cccc(Cl)c1`, the IC50 in assay [2] was 62 nM; in assay [1], 170 nM.

As to `O=S(=O)(c1ccccc1Cl)N(Cc1ccccc1)c1ccc(Oc2ccccc2)cc1`, the IC50 in assay [1] was 2200 nM. Regarding `O=S(=O)(Nc1ccc(Oc2ccccc2)cc1)c1ccc(Cl)c(Cl)c1`, in assay [1], the IC50 was 410 nM. As for `COc1cccc(S(=O)(=O)Nc2ccc(Oc3ccc(O)cc3)c(C)c2)c1`, the half-maximal inhibitory concentration (IC50) in assay [1] amounted to 2000 nM.

For the compound `COc1cccc(S(=O)(=O)N(Cc2ccccc2)c2ccc(Oc3ccccc3)cc2)c1`, the IC50 in assay [1] turned out to be 2600 nM. As for `COc1cccc(S(=O)(=O)N(C)c2ccc(Oc3ccccc3)cc2)c1`, the IC50 in assay [1] stood at 470 nM. For the compound `O=S(=O)(Nc1ccccc1)c1cccc(Cl)c1`, the IC50 in assay [1] amounted to 1500 nM.

Turning to `COc1cccc(Oc2ccc(NS(=O)(=O)c3ccccc3)cc2)c1`, the IC50 in assay [1] is 490 nM. With `O=S(=O)(Nc1ccc(Cc2ccccc2)cc1)c1cccc(Cl)c1`, the IC50 in assay [1] is 450 nM. For `CN(c1ccc(Oc2ccccc2)cc1)S(=O)(=O)c1ccccc1Cl`, in assay [1], the IC50 was determined as 390 nM. Regarding `CS(=O)(=O)Nc1ccc(Oc2ccccc2)cc1`, the IC50 in assay [1] is 2200 nM. Consider `O=S(=O)(Cc1ccccc1)Nc1ccc(Oc2ccccc2)cc1`, for which the IC50 in assay [1] stood at 1600 nM.

As to `O=S(=O)(c1cccc(Cl)c1)N(Cc1ccccc1)c1ccc(Oc2ccccc2)cc1`, the IC50 in assay [1] is 2200 nM. For the compound `O=S(=O)(Nc1ccc(Oc2ccccc2)cc1)c1ccc(Cl)cc1`, the IC50 in assay [1] came to 670 nM.

With `COc1ccc(S(=O)(=O)Nc2ccc(Oc3ccccc3)cc2)cc1`, the IC50 in assay [1] was 500 nM. For the compound `O=S(=O)(Nc1ccc(Oc2ccccc2)cc1)c1cccc2ccccc12`, the IC50 in assay [1] is 190 nM. The same measure, in the same setting: with `COc1cccc(C(=O)Nc2ccc(Oc3ccc(O)cc3)c(C)c2)c1` the figure was 5000 nM. As for `O=C(c1ccccc1)c1ccc(NS(=O)(=O)c2cccc(Cl)c2)cc1`, the figures for the IC50 in assay [2] and in assay [1] were > 10000 nM and 6000 nM, respectively. Regarding `CN(c1ccc(Oc2ccccc2)cc1)S(=O)(=O)c1ccc(Cl)cc1`, the IC50 in assay [1] was 960 nM. Turning to `O=S(=O)(Nc1ccc(Oc2ccccc2)cc1)c1cc(Cl)cc(Cl)c1`, the IC50 in assay [1] is 320 nM. On to `O=S(=O)(Nc1ccc(Oc2ccccc2)cc1)c1cccc(Cl)c1Cl`, for which, in assay [1], the IC50 was 640 nM. On the same count and under the same terms, as for `COc1cccc(S(=O)(=O)Nc2ccc(Oc3ccccc3)cc2)c1`, the figure is 250 nM; as for `COc1ccc(S(=O)(=O)N(Cc2ccccc2)c2ccc(Oc3ccccc3)cc2)cc1`, 3500 nM. In the case of `O=S(=O)(c1ccc(Cl)cc1)N(Cc1ccccc1)c1ccc(Oc2ccccc2)cc1`, the IC50 in assay [1] is 3000 nM. For the compound `Cc1ccc(NS(=O)(=O)c2cccc(Cl)c2)cc1`, in assay [1], the IC50 amounted to 1300 nM. Consider `COc1ccc(S(=O)(=O)N(C)c2ccc(Oc3ccccc3)cc2)cc1`, for which the IC50 in assay [1] is 990 nM. On the same count and under the same terms, as for `COc1cccc(Oc2ccc(NC(=O)c3ccccc3)cc2)c1`, the figure is 3800 nM; as for `O=S(=O)(Nc1ccc(Oc2ccccc2)cc1)c1ccccc1`, 520 nM; as for `CN(c1ccc(Oc2ccccc2)cc1)S(=O)(=O)c1cccc(Cl)c1`, 650 nM. For the compound `O=S(=O)(Nc1ccc(Oc2ccccc2)cc1)c1ccc2ccccc2c1`, the IC50 in assay [1] is 1700 nM. As to `O=C(Nc1ccc(Oc2ccccc2)cc1)c1ccccc1`, in assay [1], the IC50 came out at 2800 nM. The same measure, in the same setting: as for `O=S(=O)(Nc1ccc(Oc2ccccc2)cc1)c1cc(Cl)c(Cl)cc1Cl`, the figure is 1600 nM. `COc1ccc(NS(=O)(=O)c2cccc(Cl)c2)cc1`: the IC50 in assay [1] worked out at 820 nM.

As to `CC(C)c1ccc(NS(=O)(=O)c2cccc(Cl)c2)cc1`, in assay [1], the IC50 was determined as 510 nM.

With `O=S(=O)(Nc1ccc(Br)cc1)c1cccc(Cl)c1`, the IC50 in assay [1] worked out at 1300 nM. With `O=S(=O)(Nc1ccc(Oc2ccccc2)cc1)c1ccccc1Cl`, the half-maximal inhibitory concentration (IC50) in assay [1] was determined as 740 nM.

These data come from ChEMBL document CHEMBL3865849, “Development of N-(4-Phenoxyphenyl)benzenesulfonamide Derivatives as Novel Nonsteroidal Progesterone Receptor Antagonists” (ACS Med Chem Lett, 2016).
